Assay results reported in patent publication US11506670B2, “Method of genome-wide direct identification of electrophile-sensing targets” (Cornell University, priority 2018, dated 2022).

Molecular target: T1, Ube2N (Homo sapiens, UniProt P61088)
T1 construct: expressed in transfected cells; host or cells: HEK 293T
T1 sequence (P61088 1-152): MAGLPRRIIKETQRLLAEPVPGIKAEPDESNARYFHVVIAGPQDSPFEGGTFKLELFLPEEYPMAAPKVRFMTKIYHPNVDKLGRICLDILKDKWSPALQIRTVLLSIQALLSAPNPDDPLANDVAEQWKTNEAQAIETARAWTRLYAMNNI
Assay: T-REX targeted delivery efficiency, in-gel fluorescence (Cy5 Click)
Assay type: cell-based
Conditions: HEK293T, Halo-Ube2N
Description: HEK 293T cells were maintained in 1×MEM+ Glutamax™ media supplemented with 10% FBS, 1×NEAA, 1× sodium pyruvate and 1× Pen-Strep. Cells were grown in a humidified, 5% CO2 incubator at 37° C. For in-gel fluorescence analysis and western blot, ˜0.7-0.8×10^6 HEK 293T cells were seeded in 8 cm^2 tissue culture dishes. 24 h later, cells were transfected using TransIT-2020 transfection reagent per the manufacturer's recommendation. Subsequent steps were performed under dim light. 24-36 h post transfection, monolayer of cells were treated with 25 μM Ht-PreHNE in serum-free media and incubated for 2.5 h. Cells were gently rinsed with serum-free media three times every 30 min over the next 1.5 h. Meanwhile, UV lamps were turned on 10 min prior to UV irradiation time. For samples designated for light exposure, lids were removed from the dishes and cells were placed under 365 nm UV light for 5-8 min. The cells were harvested, washed two times with ice-cold PBS and frozen in liquid nitrogen.
All steps were performed in dark or under dim light. Cells from 8 cm^2 plates were lysed in 30 μL buffer containing 50 mM HEPES (pH 7.6), 150 mM NaCl, 1% Nonidet P-40, 1× Roche cOmplete, mini, EDTA-free protease inhibitor cocktail, and 0.3 mM TCEP by rapid freeze-thaw (×3). […] Protein concentration of the clarified lysate was determined using Bradford assay. […]

SMILES: CCCCCC(O)/C=C/C=O (stereo not shown) [HNE, 4-hydroxynonenal]
- T-REX targeted delivery efficiency: < 2%
